From ChEMBL document CHEMBL3877286, “Green fluorescent protein chromophore derivatives as a new class of aldose reductase inhibitors” (Eur J Med Chem, 2017) come the findings set out here.

For assay [1], the target named is T1, Aldo-keto reductase family 1 member B1 (Homo sapiens, UniProt P15121). As to the kind of experiment: Inhibition of recombinant human ALR2 assessed as reduction in NADPH oxidation measured for 5 mins in presence of D,L-glyceraldehyde by spectrophotometric method.
The target in assay [2] is T1, Aldo-keto reductase family 1 member B1. As to the kind of experiment: Inhibition of recombinant human ALR2 assessed as reduction in NADPH oxidation at 13 uM measured for 5 mins in presence of D,L-glyceraldehyde by spectrophotometric method relative to control.
Assay [3] has the same target. As to the kind of experiment: Potency index, ratio of sorbinil IC50 to compound IC50 for recombinant human ALR2.

As usually defined, the IC50 is the concentration that inhibits the measured activity by half. The term inhibition denotes how much of the control response was suppressed.

`CC1=N/C(=C\c2cccc(O)c2)C(=O)N1CC(=O)O`: in assay [1], the IC50 is 3200 nM. The same measure, in the same setting: as for `CC1=N/C(=C\c2ccc(Cl)cc2)C(=O)N1CC(=O)O`, the figure is 270 nM; as for `CC1=N/C(=C\c2cc(C)c(O)c(C)c2)C(=O)N1CC(=O)O`, 130 nM. On the same count and under the same terms, as for `CCOC(=O)COc1ccc(/C=C2\N=C(C)N(CC(=O)OCC)C2=O)cc1`, the figure is 109000 nM; as for `CC1=N/C(=C\c2cccc3ccccc23)C(=O)N1CC(=O)O`, 540 nM. In the case of `COc1ccc(/C=C2\N=C(C)N(CC(=O)O)C2=O)cc1`, the IC50 in assay [1] stood at 510 nM. Turning to `CCOC(=O)CN1C(=O)/C(=C/c2ccc(Cl)cc2)N=C1C`, in assay [2], the inhibition was determined as 16%. Turning to `CC1=N/C(=C\c2ccc(O)cc2)C(=O)N1CCC(=O)O`, the 50% inhibitory concentration (IC50) in assay [1] was determined as 10700 nM. As to `CC1=N/C(=C\c2ccc(OCC(=O)O)cc2)C(=O)N1CC(=O)O`, the IC50 in assay [1] turned out to be 310 nM. Consider `CC1=N/C(=C\c2ccc3ccccc3c2)C(=O)N1CC(=O)O`, for which, in assay [1], the half-inhibitory concentration (IC50) amounted to 100 nM. Take `CC1=N/C(=C\c2ccc(F)cc2)C(=O)N1CC(=O)O`: the IC50 in assay [1] was found to be 650 nM. On the same count and under the same terms, as for `CC1=N/C(=C\c2ccc(Br)cc2)C(=O)N1CC(=O)O`, the figure is 240 nM; as for `CCOC(=O)CN1C(=O)/C(=C/c2ccccc2)N=C1C`, 112000 nM. As for `CC1=N/C(=C\c2ccc(O)cc2)C(=O)N1CC(=O)O`, the Ratio IC50 in assay [3] worked out at 6. The IC50 in assay [1] turned out to be 360 nM. Take `CC1=N/C(=C\c2ccccc2)C(=O)N1CC(=O)O`: the IC50 in assay [1] turned out to be 580 nM.

With `CCOC(=O)CN1C(=O)/C(=C/c2ccc(O)cc2)N=C1C`, the IC50 in assay [1] was found to be 23000 nM.
